In PubChem BioAssay (NCI):
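Step 1: Grow cells in 96-well plates. Step 2: Expose to compound for 48 hours at 5 concentrations. Step 3: Interpolate endpoints linearly; if unreached, use highest concentration. At the GI50, growth is halved. At the TGI there is no net growth.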

Assays:
Experiment in all cases: DTP human tumour cell line panel, 48 h
[1] = tested on: SK-MEL-2 melanoma
[2] = tested on: DU-145 prostate
[3] = tested on: CCRF-CEM leukemia
[4] = tested on: RPMI-8226 leukemia
[5] = tested on: CAKI-1 renal
[6] = tested on: SR leukemia
[7] = tested on: SK-OV-3 ovarian
[8] = tested on: NCI-H23 lung
[9] = tested on: BT-549 breast
[10] = tested on: NCI-H226 lung
[11] = tested on: UACC-257 melanoma
[12] = tested on: HL-60(TB) leukemia
[13] = tested on: MOLT-4 leukemia
[14] = tested on: RXF 393 renal
[15] = tested on: ACHN renal
[16] = tested on: HT29 colon
[17] = tested on: K-562 leukemia
[18] = tested on: HOP-62 NSCLC
[19] = tested on: SK-MEL-5 melanoma
[20] = tested on: M14 melanoma
[21] = tested on: HCC-2998 colon
[22] = tested on: NCI/ADR-RES ovarian
[23] = tested on: SNB-75 CNS
[24] = tested on: KM12 colon
[25] = tested on: PC-3 prostate
[26] = tested on: A498 renal
[27] = tested on: U251 CNS
[28] = tested on: EKVX NSCLC
[29] = tested on: UACC-62 melanoma
[30] = tested on: OVCAR-8 ovarian
[31] = tested on: TK-10 renal
[32] = tested on: NCI-H522 lung
[33] = tested on: HCT-15 colon
[34] = tested on: UO-31 renal
[35] = tested on: SK-MEL-28 melanoma
[36] = tested on: SF-295 CNS
[37] = tested on: 786-0 renal
[38] = tested on: OVCAR-3 ovarian
[39] = tested on: SF-539 CNS
[40] = tested on: HCT-116 colon
[41] = tested on: LOX IMVI melanoma
[42] = tested on: MDA-MB-231 breast
[43] = tested on: NCI-H460 lung
[44] = tested on: MALME-3M melanoma
[45] = tested on: A549 NSCLC
[46] = tested on: COLO 205 colon
[47] = tested on: HS 578T breast
[48] = tested on: OVCAR-4 ovarian
[49] = tested on: OVCAR-5 ovarian
[50] = tested on: MDA-MB-435
[51] = tested on: SNB-19 CNS
[52] = tested on: IGROV1 ovarian
[53] = tested on: SW-620 colon
[54] = tested on: SN12C renal
[55] = tested on: SF-268 CNS
[56] = tested on: HOP-92 NSCLC
[57] = tested on: MCF7 breast

With N=C(N)c1ccc(-c2ccc(-c3ccc(Cl)cc3Cl)s2)cc1F the GI50 [1] was 2210 nM, the TGI [1] was 5200 nM and the GI50 [2] was 1780 nM. For the same compound, the TGI [2] was 3160 nM, the GI50 [3] was 1800 nM and the TGI [3] was 4670 nM. The GI50 [4] was 2070 nM, the TGI [4] was 4570 nM and the GI50 [5] was 1630 nM. The TGI [5] was 2990 nM, the GI50 [6] was 1420 nM and the TGI [6] was over 100000 nM. The GI50 [7] was 3050 nM and the TGI [7] was 17500 nM.

C/C=C1\NC(=O)[C@H](Cc2ccccc2)NC(=O)[C@@H](C(C)C)NC(=O)[C@@H]([C@@H](C)CC)NC(=O)[C@H](NC(=O)[C@H](NC(=O)[C@H](CCCN)NC(=O)[C@H]2CCCN2C(=O)[C@H](NC(=O)[C@@H](NC(=O)[C@@H](NC(=O)[C@H](NC(=O)CCCC(C)C)C(C)C)[C@@H](C)O)C(C)C)C(C)C)[C@@H](C)CC)[C@@H](C)OC(=O)[C@H](C(C)C)NC1=O was tested, and the TGI [8] was 15200 nM, the TGI [9] was 12000 nM and the TGI [10] was 4240 nM. It also gave a GI50 [11] of 1020 nM and a TGI [11] of 2840 nM.

C(=C\c1n(Cc2ccc3ccccc3c2)c(-c2ccccc2)c(-c2ccccc2)[n+]1Cc1ccc2ccccc2c1)/c1ccccc1 gave a GI50 [12] of 200 nM, a TGI [12] of 635 nM and a GI50 [13] of 292 nM. For the same compound, the TGI [13] was 1260 nM, the GI50 [14] was 260 nM and the TGI [14] was 1140 nM. For the same compound, the GI50 [15] was 239 nM, the TGI [15] was 591 nM and the GI50 [8] was 257 nM. For the same compound, the TGI [8] was 919 nM, the GI50 [3] was 406 nM and the TGI [3] was 2090 nM. For the same compound, the GI50 [4] was 75.8 nM, the TGI [4] was 621 nM and the GI50 [16] was 142 nM. For the same compound, the TGI [16] was 1090 nM, the GI50 [6] was 313 nM and the TGI [6] was over 100000 nM. The GI50 [17] was 222 nM and the TGI [17] was 5000 nM.

COc1cccc(C2C(C#N)=C(N)Oc3cc(N)ccc32)c1 (configuration not stated) gave a GI50 [12] of 350 nM, a TGI [12] of 745 nM and a GI50 [18] of 692 nM. For the same compound, the TGI [18] was over 100000 nM, the GI50 [19] was 396 nM and the TGI [19] was over 61800 nM. The GI50 [20] was 341 nM, the TGI [20] was over 100000 nM and the GI50 [21] was 820 nM. For the same compound, the TGI [21] was over 100000 nM, the GI50 [22] was 346 nM and the TGI [22] was 4380 nM. It also gave a GI50 [23] of 293 nM, a TGI [23] of over 100000 nM and a GI50 [24] of 442 nM. It also gave a TGI [24] of 45900 nM, a GI50 [1] of 397 nM and a TGI [1] of over 100000 nM. For the same compound, the GI50 [13] was 563 nM, the TGI [13] was over 52300 nM and the GI50 [25] was 509 nM. It also gave a TGI [25] of over 100000 nM, a GI50 [26] of 203 nM and a GI50 [27] of 369 nM. It also gave a GI50 [28] of 854 nM, a TGI [28] of over 100000 nM and a GI50 [2] of 710 nM. For the same compound, the TGI [2] was 34000 nM, the GI50 [29] was 368 nM and the TGI [29] was over 100000 nM. The GI50 [30] was 649 nM, the TGI [30] was over 60900 nM and the GI50 [31] was 2830 nM. For the same compound, the TGI [31] was over 100000 nM, the GI50 [32] was 242 nM and the TGI [32] was 771 nM. It also gave a GI50 [33] of 385 nM, a TGI [33] of over 100000 nM and a GI50 [34] of 858 nM. For the same compound, the TGI [34] was over 100000 nM, the GI50 [15] was 762 nM and the TGI [15] was over 100000 nM. For the same compound, the GI50 [8] was 571 nM, the TGI [8] was over 100000 nM and the GI50 [35] was 663 nM. It also gave a TGI [35] of over 100000 nM, a GI50 [36] of 376 nM and a TGI [36] of over 100000 nM. It also gave a GI50 [3] of 320 nM, a GI50 [37] of 632 nM and a TGI [37] of over 100000 nM. The GI50 [38] was 337 nM, the TGI [38] was 1030 nM and the GI50 [39] was 343 nM. For the same compound, the TGI [39] was 1370 nM, the GI50 [40] was 383 nM and the TGI [40] was over 72200 nM. The GI50 [9] was 351 nM, the TGI [9] was 54300 nM and the GI50 [41] was 506 nM. It also gave a TGI [41] of over 100000 nM, a GI50 [42] of 1290 nM and a TGI [42] of 59600 nM. It also gave a GI50 [43] of 368 nM, a TGI [43] of over 87000 nM and a GI50 [4] of 412 nM. It also gave a TGI [4] of over 69000 nM, a GI50 [5] of 470 nM and a TGI [5] of over 100000 nM. For the same compound, the GI50 [44] was 632 nM, the TGI [44] was over 100000 nM and the GI50 [16] was 360 nM. For the same compound, the TGI [16] was 5030 nM, the GI50 [45] was 572 nM and the TGI [45] was over 100000 nM. For the same compound, the GI50 [46] was 385 nM, the TGI [46] was 2090 nM and the GI50 [6] was 300 nM. For the same compound, the TGI [6] was over 100000 nM, the GI50 [47] was 314 nM and the TGI [47] was over 100000 nM. It also gave a GI50 [17] of 396 nM, a TGI [17] of over 100000 nM and a GI50 [48] of 5140 nM. For the same compound, the TGI [48] was over 100000 nM, the GI50 [49] was 1430 nM and the TGI [49] was over 100000 nM. The GI50 [50] was 138 nM, the TGI [50] was 672 nM and the TGI [51] was over 100000 nM. For the same compound, the GI50 [7] was 400 nM, the TGI [7] was 3500 nM and the GI50 [52] was 854 nM. It also gave a TGI [52] of over 100000 nM, a GI50 [53] of 312 nM and a TGI [53] of over 100000 nM. For the same compound, the GI50 [54] was 689 nM, the TGI [54] was over 100000 nM and the GI50 [10] was 5520 nM. For the same compound, the TGI [10] was over 100000 nM, the GI50 [55] was 1570 nM and the TGI [55] was over 100000 nM. It also gave a GI50 [11] of 319 nM, a TGI [11] of over 100000 nM and a GI50 [56] of 310 nM. For the same compound, the TGI [56] was 58300 nM, the GI50 [57] was 314 nM and the TGI [57] was over 100000 nM.
